The assay concerns the target T1, MRB1590(10–668) (Trypanosoma brucei, UniProt Q57ZF2).
T1 construct: gene Tb03.30P12.70; residues 10-668 (full length 668, 72 kDa); homodimer, ATP site formed by both subunits
T1 sequence (Q57ZF2 10-668): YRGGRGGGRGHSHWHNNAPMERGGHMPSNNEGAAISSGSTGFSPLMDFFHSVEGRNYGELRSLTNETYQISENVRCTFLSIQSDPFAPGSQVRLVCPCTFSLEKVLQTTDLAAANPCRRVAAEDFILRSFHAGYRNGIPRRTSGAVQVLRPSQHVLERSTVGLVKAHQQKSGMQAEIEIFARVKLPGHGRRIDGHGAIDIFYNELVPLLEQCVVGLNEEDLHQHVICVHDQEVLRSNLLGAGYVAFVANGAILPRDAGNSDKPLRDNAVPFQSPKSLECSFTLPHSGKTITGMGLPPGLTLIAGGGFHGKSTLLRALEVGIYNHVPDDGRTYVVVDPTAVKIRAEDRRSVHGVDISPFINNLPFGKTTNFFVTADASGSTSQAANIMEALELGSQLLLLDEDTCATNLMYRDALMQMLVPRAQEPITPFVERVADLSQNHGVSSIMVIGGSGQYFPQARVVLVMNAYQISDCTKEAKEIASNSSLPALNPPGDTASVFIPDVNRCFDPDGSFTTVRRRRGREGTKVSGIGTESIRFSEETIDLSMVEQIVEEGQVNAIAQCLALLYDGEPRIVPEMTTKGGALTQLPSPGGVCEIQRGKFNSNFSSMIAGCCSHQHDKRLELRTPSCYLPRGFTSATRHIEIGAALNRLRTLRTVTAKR
The experiment in a line: ITC. Format: binding.

`Nc1ncnc2c1ncn2[C@@H]1O[C@H](COP(=O)(O)OP(=O)(O)O)[C@@H](O)[C@H]1O` [ADP] came in with a Kd of 0.885 ± 0.049 µM.

`Nc1ncnc2c1ncn2[C@@H]1O[C@H](COP(=O)(O)OP(=O)(O)NP(=O)(O)O)[C@@H](O)[C@H]1O` [AMP-PNP] came in with a Kd of 1.27 ± 0.21 µM.

These data come from publication PMC4538832, “Structures of the T. brucei kRNA editing factor MRB1590 reveal unique RNA-binding pore motif contained within an ABC-ATPase fold” (Nucleic Acids Research, 2015).
